PubChem BioAssay (NCI)
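Interpolation was linear, between the two tested concentrations surrounding the appropriate level; five concentrations were tested over 48 hours in 96-well plates. TGI is the concentration that stops growth completely.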

Key:
Experiment in all cases: NCI tumour cell line growth inhibition, 48 h
A498 renal = test system: A498 renal
A549 NSCLC = test system: A549 NSCLC
CAKI-1 renal = test system: CAKI-1 renal
CCRF-CEM leukemia = test system: CCRF-CEM leukemia
COLO 205 colon = test system: COLO 205 colon
DLD-1 colon = test system: DLD-1 colon
DMS 114 small cell lung = test system: DMS 114 small cell lung
DMS 273 small cell lung = test system: DMS 273 small cell lung
EKVX NSCLC = test system: EKVX NSCLC
HCC-2998 colon = test system: HCC-2998 colon
HCT-116 colon = test system: HCT-116 colon
HCT-15 colon = test system: HCT-15 colon
HL-60(TB) leukemia = test system: HL-60(TB) leukemia
HOP-18 NSCLC = test system: HOP-18 NSCLC
HOP-92 NSCLC = test system: HOP-92 NSCLC
HT29 colon = test system: HT29 colon
IGROV1 ovarian = test system: IGROV1 ovarian
K-562 leukemia = test system: K-562 leukemia
KM12 colon = test system: KM12 colon
KM20L2 colon = test system: KM20L2 colon
LOX IMVI melanoma = test system: LOX IMVI melanoma
M19-MEL melanoma = test system: M19-MEL melanoma
MALME-3M melanoma = test system: MALME-3M melanoma
MCF7 breast = test system: MCF7 breast
MOLT-4 leukemia = test system: MOLT-4 leukemia
NCI-H226 lung = test system: NCI-H226 lung
NCI-H23 lung = test system: NCI-H23 lung
NCI-H460 lung = test system: NCI-H460 lung
NCI-H522 lung = test system: NCI-H522 lung
NCI/ADR-RES ovarian = test system: NCI/ADR-RES ovarian
OVCAR-3 ovarian = test system: OVCAR-3 ovarian
OVCAR-4 ovarian = test system: OVCAR-4 ovarian
OVCAR-5 ovarian = test system: OVCAR-5 ovarian
OVCAR-8 ovarian = test system: OVCAR-8 ovarian
P388 leukemia = test system: P388 leukemia
P388/ADR leukemia = test system: P388/ADR leukemia
RPMI-8226 leukemia = test system: RPMI-8226 leukemia
RXF 393 renal = test system: RXF 393 renal
SF-268 CNS = test system: SF-268 CNS
SF-295 CNS = test system: SF-295 CNS
SF-539 CNS = test system: SF-539 CNS
SK-MEL-2 melanoma = test system: SK-MEL-2 melanoma
SK-MEL-28 melanoma = test system: SK-MEL-28 melanoma
SK-MEL-5 melanoma = test system: SK-MEL-5 melanoma
SK-OV-3 ovarian = test system: SK-OV-3 ovarian
SN12C renal = test system: SN12C renal
SN12K1 renal = test system: SN12K1 renal
SNB-19 CNS = test system: SNB-19 CNS
SNB-75 CNS = test system: SNB-75 CNS
SNB-78 CNS = test system: SNB-78 CNS
SW-620 colon = test system: SW-620 colon
U251 CNS = test system: U251 CNS
UACC-257 melanoma = test system: UACC-257 melanoma
UACC-62 melanoma = test system: UACC-62 melanoma
UO-31 renal = test system: UO-31 renal

CC(C)=CCc1c(O)ccc2ccc(=O)oc12
TGI (A498 renal): > 100 µM | TGI (A549 NSCLC): > 100 µM | TGI (CAKI-1 renal): > 100 µM | TGI (CCRF-CEM leukemia): > 100 µM | TGI (COLO 205 colon): > 100 µM | TGI (DLD-1 colon): > 100 µM | TGI (DMS 114 small cell lung): 93.6 µM | TGI (DMS 273 small cell lung): > 100 µM | TGI (EKVX NSCLC): > 100 µM | TGI (HCC-2998 colon): > 100 µM | TGI (HCT-116 colon): > 100 µM | TGI (HCT-15 colon): > 100 µM | TGI (HL-60(TB) leukemia): > 80.6 µM | TGI (HOP-18 NSCLC): > 100 µM | TGI (HOP-92 NSCLC): 94.6 µM | TGI (HT29 colon): > 100 µM | TGI (IGROV1 ovarian): > 100 µM | TGI (K-562 leukemia): > 100 µM | TGI (KM12 colon): > 100 µM | TGI (KM20L2 colon): > 100 µM | TGI (LOX IMVI melanoma): > 100 µM | TGI (M19-MEL melanoma): > 100 µM | TGI (MALME-3M melanoma): > 100 µM | TGI (MCF7 breast): > 100 µM | TGI (MOLT-4 leukemia): 84.2 µM | TGI (NCI-H226 lung): > 100 µM | TGI (NCI-H23 lung): > 100 µM | TGI (NCI-H460 lung): > 100 µM | TGI (NCI-H522 lung): > 100 µM | TGI (NCI/ADR-RES ovarian): > 31.6 µM | TGI (OVCAR-3 ovarian): > 100 µM | TGI (OVCAR-4 ovarian): > 100 µM | TGI (OVCAR-5 ovarian): > 31.6 µM | TGI (OVCAR-8 ovarian): > 100 µM | TGI (P388 leukemia): > 100 µM | TGI (P388/ADR leukemia): > 100 µM | TGI (RPMI-8226 leukemia): > 100 µM | TGI (RXF 393 renal): > 100 µM | TGI (SF-268 CNS): > 100 µM | TGI (SF-295 CNS): > 100 µM | TGI (SF-539 CNS): > 31.6 µM | TGI (SK-MEL-2 melanoma): > 100 µM | TGI (SK-MEL-28 melanoma): > 100 µM | TGI (SK-MEL-5 melanoma): 23.5 µM | TGI (SK-OV-3 ovarian): > 100 µM | TGI (SN12C renal): > 100 µM | TGI (SN12K1 renal): > 100 µM | TGI (SNB-19 CNS): > 100 µM | TGI (SNB-75 CNS): > 100 µM | TGI (SNB-78 CNS): > 100 µM | TGI (SW-620 colon): > 100 µM | TGI (U251 CNS): > 100 µM | TGI (UACC-257 melanoma): 84 µM | TGI (UACC-62 melanoma): > 100 µM | TGI (UO-31 renal): > 95.1 µM
